Here are results for six molecules from patent publication US10800789B2, “Antiviral compounds” (Gilead Pharmasset LLC, priority 2012, dated 2020).

The subject of series [1] is stable HCV 2a JFH-1 Rluc replicon cells (L31 present in NS5A). Kind of series: Renilla luciferase HCV replicon reporter assay, genotype 2a JFH-1. Type of series: cell-based. Particulars: Hepatitis C virus. The method, boiled down:
(§1)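 Cells carrying the stable or transiently transfected (Huh-Lunet) dicistronic RLuc replicons received 3-fold serial compound dilutions from 10 mM DMSO stocks. After 72 h, cells were lysed and Renilla luciferase read. DMSO served as the no-inhibition control and ITMN-191 above 100×EC50 as the positive control; EC50 by non-linear regression.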
For orientation: Replicon systems follow genome replication, usually without infectious particles.

Series [2] concerns NS5A chimeric genotype 1b Con1 replicon with genotype 4a ED43 strain NS5A gene. Put plainly: Replicon assay, genotype 4a NS5A chimera. Type of series: cell-based, HCV. Conditions: Hepatitis C virus.
A short description of series [3]: IV and PO single dose pharmacokinetic studies in SD rats. Type of series: in vivo, male Sprague-Dawley (SD) rats. Conditions: Sprague-Dawley, rat, plasma, male SD rats, PO 2 mg/kg vs IV infusion 1 mg/kg, read-out: Rat % F. As for the experimental part:
IV and PO Single Dose Pharmacokinetic Studies in SD Rats:
The pharmacokinetics of selected compounds was characterized in male Sprague-Dawley (SD) rats (250-300g). In this study, two groups of naïve purebred SD rats (N=3 per group, fasted over night) received the selected compound either as an intravenous (IV) infusion (1 mg/kg over 30 minutes) via the jugular vein or by oral gavage (2 mg/kg). The intravenous (IV) dosing vehicle was 5% ethanol, 35% polyethylene glycol 400 (PEG 400) and 60% water pH 2.0. The oral dosing vehicle was 5% ethanol, 55% PEG 400 and 40% citrate buffer pH 2.2.
Serial blood samples (approximately 0.3 mL each) were collected from jugular vein or other suitable vein at specified time points. For the IV infusion group, the blood samples were collected predose and at 0.25, 0.48, 0.58, 0.75, 1.5, 3, 6, 8, 12 and 24 hours after the start of infusion. For the oral group, the blood samples were collected predose and at 0.25, 0.50, 1, 2, 4, 6, 8, 12 and 24 hours after dosing. The blood samples were collected into VacutainerγM tubes containing EDTA-K3 as the anti-coagulant and were centrifuged at approximately 4° C. to obtain plasma. The plasma samples were stored at −20° C. until analysis by LC/MS/MS.
A bioanalytical method utilizing high performance liquid chromatography coupled to tandem mass spectrometry (LC/MS/MS) was developed for analysis of the selected compound in rat plasma. Detection was performed using selected reaction monitoring (SRM); Ions representing the precursor (M+H)^+ species was selected in quadrupole 1 (Q1) and collided with argon gas in the collision cell (Q2) to generate specific product ion, which was subsequently monitored by quadrupole 3 (Q3). Standard curve and quality control samples were prepared in male rat plasma and processed in the same way as the test samples to generate quantitative data.
Pharmacokinetic parameters were generated using non-compartmental pharmacokinetic analysis (Phoenix WinNonlin, version 6.3). Values below the lower limit of quantification (LLOQ) were assigned a value of zero if predose and treated as missing thereafter. Area under the curve (AUC) was calculated using the linear trapezoidal rule. The oral bioavailability (% F) was determined by comparison of the area under the curve (AUC) of the compound and/or a metabolite generated in plasma following oral administration to that generated following intravenous administration.

The test system of series [4] is stable HCV 1b RLuc replicon cells (dicistronic genotype 1b Con1 replicon). Kind of series: Renilla luciferase HCV replicon reporter assay, genotype 1b. Type of series: cell-based. Particulars: Hepatitis C virus, 72 h, stable 1b Con1 RLuc replicon cells, 72 hours; read-out: 1b. Put shortly:
as §1

For series [5], the system named is NS5A chimeric genotype 1b Con1 replicon with genotype 3a S52 strain NS5A gene. Put plainly: Replicon assay, genotype 3a NS5A chimera. Type of series: cell-based, HCV. Conditions: Hepatitis C virus.
The subject of series [6] is stable HCV 1a RLuc replicon cells (dicistronic genotype 1a H77 replicon). Kind of series: Renilla luciferase HCV replicon reporter assay, genotype 1a. Type of series: cell-based. Conditions: Hepatitis C virus, 72 h, stable 1a H77 RLuc replicon cells. The method, boiled down:
as §1

Series [7] deals with NS5A chimeric genotype 2a JFH-1 replicon with genotype 2a J6 strain NS5A gene (M31 present). Put plainly: Replicon assay, genotype 2a J6 NS5A chimera. Type of series: cell-based, HCV. Particulars: Hepatitis C virus. The method, boiled down: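 EC50 was fitted by non-linear regression to Renilla luciferase signal after 72 h of exposure to 3-fold serially diluted compound (10 mM DMSO stocks). Controls were DMSO (none) and ITMN-191 above 100×EC50 (full). Chimeric 2a replicons were used either stable or transiently transfected into Huh-Lunet cells.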

The test system of series [8] is NS5A chimeric genotype 2a JFH-1 replicon with genotype 2b MD2b-1 strain NS5A gene (M31 present). Put plainly: Replicon assay, genotype 2b NS5A chimera. Type of series: cell-based, HCV. Conditions: Hepatitis C virus. Put shortly: as §1
Where [9] appears, read: read-out: 2a JFH (nM), genotype 2a JFH-1 replicon (L31 in NS5A), stable cells.
Setting [10] is: read-out: 2a JFH, stable 2a JFH-1 Rluc replicon cells, L31 in NS5A, activity range.
Where [11] appears, read: read-out: 4a (s) (nM), genotype 4a NS5A chimeric replicon, stable replicon cells (s).
Setting [12] is: read-out: 4a (s), (s), activity range.
The mark [13] stands for this setting: read-out: 3a (s) (nM), genotype 3a NS5A chimeric replicon, stable replicon cells (s).
Setting [14] is: read-out: 3a (s), (s), activity range.
Where [15] appears, read: read-out: 2a J6 (t) (nM), genotype 2a J6 NS5A chimeric replicon (M31), transiently transfected (t) into Huh-Lunet cells.
The mark [16] stands for this setting: read-out: 2a J6 (t), transiently transfected (t) into Huh-Lunet cells, activity range.
The mark [17] stands for this setting: 2BS, read-out: 2b (s), stably replicating replicon cells (s), activity range.
[18] abbreviates: read-out: 2b (s) (nM), genotype 2b MD2b-1 NS5A chimeric replicon (M31), stably replicating replicon cells (s).
Setting [19] is: read-out: 2b (t) (nM), genotype 2b MD2b-1 NS5A chimeric replicon (M31), transiently transfected (t).
Where [20] appears, read: read-out: 2b (t), transiently transfected (t) into Huh-Lunet cells, activity range.

Like-named read-outs stand apart in the source and are kept apart here. A value given as a limit tells only on which side of the number the result lay.

On to `COC(=O)N[C@H](C(=O)N1C[C@@H](C)C[C@H]1c1nc2ccc3cc4c(cc3c2[nH]1)OCc1cc(-c2cnc([C@@H]3CC[C@H](C)N3C(=O)[C@@H](NC(=O)OC)[C@@H](C)OC)[nH]2)ccc1-4)[C@@H](C)OC` [DY, Methyl [(2S,3R)-3-methoxy-1-{(2S,5S)-2-[9-(2-{(2S,5S)-1-[N-(methoxycarbonyl)-O-methyl-L-threonyl]-5-methylpyrrolidin-2-yl}-1H-imidazol-5-yl)-1,11-dihydroisochromeno[4′,3′:6,7]naphtho[1,2-d]imidazol-2-yl]-4-methylpyrrolidin-1-yl}-1-oxobutan-2-yl]carbamate], for which the EC50 in series [1] (setting [9]) is 0.028 nM; in series [1] (setting [10]), < 0.1 nM; in series [2] (setting [11]), 0.035 nM; in series [2] (setting [12]), < 0.1 nM; in series [4], 0.065 nM; in series [5] (setting [13]) it was 0.13 nM. In addition, the EC50 in series [5] (setting [14]) was 0.1 to 0.999 nM; in series [6], 0.044 nM; in series [6] (activity range), < 0.1 nM; in series [7] (setting [15]) it was 0.047 nM; in series [7] (setting [16]), < 0.1 nM; in series [8] (setting [17]), 0.1 to 0.999 nM. Further, the EC50 in series [8] (setting [18]) is 0.199 nM; in series [8] (setting [19]), 0.083 nM; in series [8] (setting [20]), < 0.1 nM. The bioavailability in series [3] turned out to be 8.3%.

In the case of `COC(=O)NC(C(=O)N1[C@@H](C)CC[C@H]1c1nc2ccc3cc4c(cc3c2[nH]1)OCc1cc(-c2cnc([C@@H]3CC[C@H](C)N3C(=O)[C@@H](NC(=O)OC)C3CCOCC3)[nH]2)ccc1-4)C(C)C` (stereo partly drawn) [EA, Methyl(1-{(2S,5S)-2-[9-(2-{(2S,5S)-1-[(2S)-2-[(methoxycarbonyl)amino]-2-(tetra hydro-2H-pyran-4-yl)acetyl]-5-methylpyrrolidin-2-yl}-1H-imidazol-5-yl)-1,11-dihydroisochromeno[4′,3′:6,7]naphtho[1,2-d]imidazol-2-yl]-5-methylpyrrolidin-1-yl}-3-methyl-1-oxobutan-2-yl)carbamate], the EC50 in series [1] (setting [9]) is 0.015 nM; in series [1] (setting [10]) it was < 0.1 nM; in series [2] (setting [11]), 0.019 nM; in series [2] (setting [12]), < 0.1 nM; in series [4] it was 0.028 nM; in series [5] (setting [13]), 0.035 nM. Further, the EC50 in series [5] (setting [14]) was < 0.1 nM; in series [6], 0.018 nM; in series [6] (activity range), < 0.1 nM; in series [7] (setting [15]), 0.035 nM; in series [7] (setting [16]), < 0.1 nM; in series [8] (setting [17]), < 0.1 nM. In addition, the EC50 was 0.088 nM in series [8] (setting [18]), 0.037 nM in series [8] (setting [19]) and < 0.1 nM in series [8] (setting [20]). Besides, the bioavailability in series [3] stood at 10.2%.

As for `COC(=O)N[C@H](C(=O)N1[C@@H](C)CC[C@H]1c1ncc(-c2ccc3c(c2)COc2cc4c(ccc5nc([C@@H]6C[C@H](C)CN6C(=O)[C@@H](NC(=O)OC)C6CCOCC6)[nH]c54)cc2-3)[nH]1)C(C)C` [EI, methyl[(1 S)-2-[(2S,4S)-2-(9-{2-[(2S,5S)-1-{(2S)-2-[(methoxycarbonyl)amino]-3-methylbutanoyl}-5-methylpyrrolidin-2-yl]-1H-imidazol-5-yl}-1,11 dihydroisochromeno[4′,3′:6,7]naphtho[1,2-d]imidazol-2-yl)-4-methylpyrrolidin-1-yl]-2-oxo-1-(tetra hydro-2H-pyran-4-yl)ethyl]carbamate], the EC50 in series [1] (setting [9]) was 0.033 nM; in series [1] (setting [10]) it was < 0.1 nM; in series [2] (setting [11]), 0.02 nM; in series [2] (setting [12]), < 0.1 nM; in series [4], 0.048 nM; in series [5] (setting [13]), 0.077 nM. In addition, the EC50 in series [5] (setting [14]) was < 0.1 nM; in series [5] (read-out: 3a (t) (nM), genotype 3a NS5A chimeric replicon, transiently transfected (t)), 0.074 nM; in series [5] (read-out: 3a (t), transiently transfected (t) into Huh-Lunet cells, activity range), < 0.1 nM; in series [6], 0.025 nM; in series [6] (activity range) it was < 0.1 nM; in series [7] (setting [15]), 0.022 nM. Further, the figures for the EC50 in series [7] (setting [16]), in series [8] (setting [17]) and in series [8] (setting [18]) were < 0.1 nM, < 0.1 nM and 0.048 nM, respectively. In series [3], the bioavailability worked out at 4.4%.

Turning to `COC(=O)N[C@H](C(=O)N1C[C@@H](C)C[C@H]1c1nc2ccc3cc4c(cc3c2[nH]1)OCc1cc(-c2cnc([C@@H]3CC[C@H](C)N3C(=O)[C@@H](NC(=O)OC)[C@@H](C)OC)[nH]2)ccc1-4)C(C)C` [GA], the EC50 was 0.018 nM in series [1] (setting [9]); < 0.1 nM in series [1] (setting [10]); 0.016 nM in series [2] (setting [11]); < 0.1 nM in series [2] (setting [12]); 0.035 nM in series [4]; 0.063 nM in series [5] (setting [13]). Besides, the EC50 was < 0.1 nM in series [5] (setting [14]); 0.019 nM in series [6]; < 0.1 nM in series [6] (activity range); 0.064 nM in series [7] (setting [15]); < 0.1 nM in series [7] (setting [16]); 0.1 to 0.999 nM in series [8] (setting [17]). Besides, the EC50 in series [8] (setting [18]) was 0.245 nM. Moreover, the bioavailability in series [3] is 3.2%.

With `CC[C@H]1CC[C@@H](c2ncc(-c3ccc4c(c3)COc3cc5c(ccc6nc([C@@H]7CC[C@H](CC)N7C(=O)[C@@H](NC(=O)OC)C7CCOCC7)[nH]c65)cc3-4)[nH]2)N1C(=O)[C@@H](NC(=O)OC)C1CCOCC1` [IE], the EC50 in series [1] (setting [9]) is 0.035 nM; in series [1] (setting [10]), < 0.1 nM; in series [2] (setting [11]) it was 0.039 nM; in series [2] (setting [12]) it was < 0.1 nM; in series [4], 0.054 nM; in series [5] (setting [13]), 0.198 nM. The EC50 in series [5] (setting [14]) was 0.1 to 0.999 nM; in series [6], 0.042 nM; in series [6] (activity range) it was < 0.1 nM; in series [7] (setting [15]), 0.042 nM; in series [7] (setting [16]), < 0.1 nM; in series [8] (setting [17]) it was < 0.1 nM. In addition, the EC50 in series [8] (setting [18]) was 0.065 nM. Further, the bioavailability in series [3] worked out at 2.2%.

As to `CC[C@H]1CC[C@@H](c2ncc(-c3ccc4c(c3)COc3cc5c(ccc6nc([C@@H]7CC[C@H](CC)N7C(=O)[C@@H](NC(=O)OC)C7CCOCC7)[nH]c65)cc3-4)[nH]2)N1C(=O)[C@@H](NC(=O)OC)C(C)C` [IG], the EC50 in series [1] (setting [9]) was 0.034 nM; in series [1] (setting [10]) it was < 0.1 nM; in series [2] (setting [11]), 0.025 nM; in series [2] (setting [12]), < 0.1 nM; in series [4], 0.035 nM; in series [5] (setting [13]), 0.787 nM. For the same molecule, the EC50 in series [5] (setting [14]) was 0.1 to 0.999 nM; in series [6] it was 0.027 nM; in series [6] (activity range), < 0.1 nM; in series [7] (setting [15]), 0.122 nM; in series [7] (setting [16]), 0.1 to 0.999 nM; in series [8] (setting [17]), 0.1 to 0.999 nM. Besides, the EC50 in series [8] (setting [18]) was found to be 0.25 nM. In addition, the bioavailability in series [3] worked out at 28.2%.
